Data from PubChem BioAssay (NCI).
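Growth conditions: 96-well plates. Treatment: test compound, 48 hours, 5 concentrations. Analysis: linear interpolation between bracketing concentrations; unreached endpoints set to highest concentration. The concentration for full growth arrest is given as TGI.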

How the values were obtained:
Experiment in all cases: NCI tumour cell line growth inhibition, 48 h
HS 578T breast = test system: HS 578T breast
HCC-2998 colon = test system: HCC-2998 colon
A549 NSCLC = test system: A549 NSCLC
NCI-H460 lung = test system: NCI-H460 lung
786-0 renal = test system: 786-0 renal
HOP-92 NSCLC = test system: HOP-92 NSCLC
SN12C renal = test system: SN12C renal
HCT-116 colon = test system: HCT-116 colon
HOP-62 NSCLC = test system: HOP-62 NSCLC
K-562 leukemia = test system: K-562 leukemia
U251 CNS = test system: U251 CNS
A498 renal = test system: A498 renal
MOLT-4 leukemia = test system: MOLT-4 leukemia
SNB-19 CNS = test system: SNB-19 CNS
RPMI-8226 leukemia = test system: RPMI-8226 leukemia
OVCAR-4 ovarian = test system: OVCAR-4 ovarian
SK-MEL-28 melanoma = test system: SK-MEL-28 melanoma
SF-539 CNS = test system: SF-539 CNS

SMILES | TGI (HS 578T breast) [µM] | TGI (HCC-2998 colon) [µM] | TGI (A549 NSCLC) [µM] | TGI (NCI-H460 lung) [µM] | TGI (786-0 renal) [µM] | TGI (HOP-92 NSCLC) [µM] | TGI (SN12C renal) [µM] | TGI (HCT-116 colon) [µM] | TGI (HOP-62 NSCLC) [µM] | TGI (K-562 leukemia) [µM] | TGI (U251 CNS) [µM] | TGI (A498 renal) [µM] | TGI (MOLT-4 leukemia) [µM] | TGI (SNB-19 CNS) [µM] | TGI (RPMI-8226 leukemia) [µM] | TGI (OVCAR-4 ovarian) [µM] | TGI (SK-MEL-28 melanoma) [µM] | TGI (SF-539 CNS) [µM]
C[C@]12CC(c3ccccc3O1)C(C#N)C(=O)N2 (stereo not given in full) | > 100 | > 100 | > 100 | > 100 | > 100 | > 100 | > 100 | > 100 | > 100 | > 100 | > 100 | > 100 | > 100 | > 100 | > 100 | > 100 | > 100 | 
Cc1cnc2[nH]c(-c3ccc(F)cc3)cc(=O)c2c1 | > 100 | > 100 | > 100 | > 100 | > 100 | > 100 | > 100 | > 100 | > 83.1 | 47 | > 91.8 | 81.3 | > 91.5 | > 100 | > 73.3 | > 100 | > 100 | > 100
Cc1cc(S(=O)(=O)Nc2nc(N)nc(N3CCOCC3)n2)c(SCC(=O)O)cc1Cl | > 10 | > 10 | > 10 | > 10 | > 10 | > 10 | > 10 | > 10 | > 10 | > 10 | > 10 | > 10 | > 10 | > 10 | > 10 | > 10 | > 10 | > 10
CC1(C)CCCCCCCCCC(C)(CCCO)C1=O (stereo not given) | 37.9 | 33.7 | 28.8 | 33.6 | 30.7 | 27.7 | 32.2 | 31.2 | 30.3 | 73.7 | 30.4 | 33.1 | 41.9 | 31.9 | 84.8 | 29 | 34.2 | 
CC(=O)O[C@H]1C(=O)[C@@]2(C)[C@H]([C@H](OC(=O)c3ccc([N+](=O)[O-])cc3)[C@]3(O)C[C@H](OC(=O)[C@H](O)[C@@H](NC(=O)c4ccccc4)c4ccccc4)C(C)=C1C3(C)C)[C@]1(OC(C)=O)CO[C@@H]1C[C@@H]2O | > 25 | > 25 | > 25 | > 25 | > 25 | > 25 | > 25 | > 25 | > 25 | > 25 | > 25 | > 25 | > 25 | > 25 | > 25 | > 25 | > 25 | > 25
COc1ccc2nc3cc([N+](=O)[O-])ccc3c(NNc3ccc(Cl)cc3)c2c1 | > 100 | 60.6 | > 85 | > 59 | 53.6 | 57.9 | 98 | > 55.7 | > 78.8 | > 68.3 | 74.6 | 0.221 | > 92.4 | > 100 | 78.7 | > 100 | > 100 | 97.5
COC1C=C(NCC2(CO)CCC2)NC(N)=N1 (stereo not given) | > 100 | > 100 | > 100 | > 100 | > 100 | > 100 | > 100 | > 100 | > 100 | > 100 | > 100 | > 100 | > 100 | > 100 | > 100 | > 100 | > 100 | 
O=C(CSCC(=O)N/N=C/c1cccc(OCc2ccccc2)c1)N/N=C/c1cccc(OCc2ccccc2)c1 | > 100 | > 100 | > 100 | > 100 | > 100 | 97.2 | > 74 | > 100 | > 100 | > 100 | > 100 | > 69.7 | 46.4 | > 100 | 39.9 | > 100 | > 100 | > 100
CC(=O)n1nc(-c2nc3ccccc3nc2Cl)cc1Cl | > 91.7 | > 100 | > 88.5 | > 88.2 | 78.8 | > 100 | > 65.9 | 25.4 | 73.8 | > 53.2 | > 77.6 | > 100 | 14.3 | > 92 | > 100 | 53.3 | > 86.3 | 10.1
CC(=O)OCC1OC(n2c3c(c(-c4ccc(Cl)cc4)c(C#N)c2=S)C(=O)CC(C)(C)C3)C(OC(C)=O)C(OC(C)=O)C1OC(C)=O (stereo not given) | 62.4 | 27.9 | > 100 | > 100 | > 88.7 | > 100 | > 53.4 | > 100 | > 100 | > 100 | 50.3 | 87.9 | > 100 | > 86.8 | > 100 | > 100 | 65.9 | > 68.7
N#CC1=C(C#N)/C(=C(\C#N)C(C#N)C#N)N=C1N | > 100 | > 100 | 54.9 | > 100 | > 100 | > 75 | > 100 | > 100 | > 66.6 | > 100 | > 100 | 65.4 | 64.4 | > 100 | > 81.3 | > 100 | 52 | 54.5
C=CCNC(=O)/C(Cc1cc(Br)c(OC)c(Br)c1O)=N\O | 4.23 | 14.2 | 53.4 | 15.9 | 7.28 | 24.1 |  | 12.7 | 22.9 | > 100 | 39.8 | 46.7 | > 100 | 58.9 | > 100 | 84.6 | 31 | 14.6
COC(C/C(=C/CO[Si](C(C)C)(C(C)C)C(C)C)C(=O)Nc1ccccc1I)OC | > 100 | 40 | > 100 | > 100 | > 100 | 61.7 | > 100 | 39.8 | > 100 | > 100 | > 100 | > 100 | > 100 | 42.5 | 43.4 | > 100 | > 100 | 48.4
